Data on 30 compounds can be found in patent publication US20240374579A1, “BICYCLIC PGDH INHIBITORS AND METHODS OF MAKING AND USING” (EPIRIUM BIO INC., priority 2021, published 2024).

The structures appear in SMILES notation.

One assay concerns the target T1, 15-PGDH (Homo sapiens, UniProt P15428).
T1 construct: endogenous in cells; host or cells: A549 human lung adenocarcinoma cells
T1 sequence (P15428 1-266): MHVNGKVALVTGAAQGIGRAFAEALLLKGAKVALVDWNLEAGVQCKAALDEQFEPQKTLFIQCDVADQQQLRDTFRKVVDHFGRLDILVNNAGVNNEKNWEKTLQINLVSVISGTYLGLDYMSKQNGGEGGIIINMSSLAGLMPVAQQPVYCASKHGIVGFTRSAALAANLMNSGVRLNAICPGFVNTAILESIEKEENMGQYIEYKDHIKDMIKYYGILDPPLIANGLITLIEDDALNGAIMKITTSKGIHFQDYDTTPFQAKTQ
Description: A549 cell based assay: PGE2 in supernatant (HTRF), fold induction over IL-1β. Particulars: A549 cells; for fold induction at 0.001 µM: compound 0.001 μM plus IL-1β versus IL-1β only, read-out: PGE2-HTRF over IL1-β: Fold induction at 0.001 μM; for fold induction at 0.01 µM: compound 0.01 μM plus IL-1β versus IL-1β only, read-out: PGE2-HTRF over IL1-β: Fold induction at 0.01 μM; for fold induction at 0.1 µM: compound 0.1 μM plus IL-1β versus IL-1β only, read-out: PGE2-HTRF over IL1-β: Fold induction at 0.1 μM; for fold induction at 1 µM: compound 1 μM plus IL-1β versus IL-1β only, read-out: PGE2-HTRF over IL1-β: Fold induction at 1 μM. On the procedure: Cell Based Assay: 15-PGDH is highly expressed in resting human lung adenocarcinoma cells (A549) (Tong et al., 2006), and this cell line was used to assess 15-PGDH inhibition by MF-300Na in vitro.
In this assay, A549 cells are treated with interleukin (IL) 1β, which induces the expression of cycloxygenase-2 and the synthesis of PGE2 (Tong et al., 2006). In the studies evaluating test articles, thirty thousand A549 cells were seeded in 100 μL F12K completed media and incubated for 24 hours at 37° C. with 5% CO2 before being serum-starved for 24 hours. On the day of the experiment, buffer was changed to complete medium, and cells were incubated for 30 minutes with compounds prior to the addition of IL-1β (final concentration of 0.1-0.25 ng/mL) overnight at 37° C. with 5% CO2. Each concentration was run in triplicate. […] The PGE2 in the supernatant was detected and quantified using a Cisbio HTRF technology (Homogeneous Time-Resolved Fluorescence) kit (62P2APEG-62P2APEH) according to the manufacturer's recommendations, quantifying the fold induction of PGE2 of cells treated with IL-1b plus test article, versus treatment with IL-1b only.
For orientation: TR-FRET usually uses a lanthanide donor and a delayed reading to cut background.

The next assay addresses T2, 15-PGDH/HPGD (Homo sapiens, UniProt P15428).
T2 construct: purchased R&D System 5660-DH
T2 sequence (P15428 1-266): T1 sequence (P15428 1-266)
Description: hPGDH inhibitor screening biochemical assay. The conditions noted are these: 10 nM enzyme, 15 μM PGE2, 0.25 mM NAD, fluorescence ex/em 340/485 nm. As for the experimental part:
A hydroxyprostaglandin dehydrogenase inhibition screening biochemical assay can be performed to assess the synthesized inhibitors provided herein. Provided herein is an exemplary biochemical assay for hPGDH inhibitor screening.
The in vitro biochemical assay can be performed in white, 384 plates in total 20 μl reaction volume consisting of 10 nM of 15-PGDH/HPGD (R&D System #5660-DH), 15 μM Prostaglandin E2 (Sigma, Cat #P5640-10MG) and 0.25 mM β-Nicotinamide adenine dinucleotide sodium salt (Sigma, Cat #N0632-5G) made in reaction buffer (50 mM Tris-HCl, pH 7.5, 0.01% Tween 20) at 10-point dose response curve for test/tool compounds. Briefly, 5 μl (4×) of compounds solution and 5 μl (final concentration, 10 nM) of enzyme solution is added to white 384 well plates and incubated for 10 mins at 37° C. 5 μl (4×) of Prostaglandin E2 and 5 μl (4×) of β-Nicotinamide adenine dinucleotide sodium salt is added to the wells and incubated for 10 mins at room temperature. Fluorescence is recorded at ex/em=340 nm/485 nm. The percentage ([…]) inhibition of enzyme activity was determined relative to positive control (1% DMSO) and IC50 was calculated using GraphPad prism software (four parameter-variable slope equation).

Regarding `O=C(c1cnc2c(cnn2-c2ccc(-c3ncn[nH]3)cc2)c1)N1CCC(F)(F)CC1` [Compound C-6], at 15-PGDH, the fold induction at 0.001 µM was 0.98, the fold induction at 0.01 µM was 2.14, the fold induction at 0.1 µM stood at 5.31 and the fold induction at 1 µM was determined as 4.88. The IC50 at 15-PGDH/HPGD was < 100 nM.
As to `C[C@H]1CCCN(C(=O)c2cnc3c(c2)nnn3-c2ccc(-c3nnc[nH]3)cc2)C1` [Compound C-19], on 15-PGDH, the fold induction at 0.001 µM is 1.11, the fold induction at 0.01 µM is 1.81, the fold induction at 0.1 µM turned out to be 3.61 and the fold induction at 1 µM came out at 4.5. The IC50 against 15-PGDH/HPGD is < 100 nM.
Take `C[C@H]1CCCN(C(=O)c2cnc3c(cnn3-c3ccc(N4CCOC4=O)nc3)c2)C1` [Compound C-25]: at 15-PGDH, the fold induction at 0.001 µM was 2.08, the fold induction at 0.01 µM came out at 3.56, the fold induction at 0.1 µM was 4.84 and the fold induction at 1 µM was 6.39. Besides, the IC50 against 15-PGDH/HPGD was < 100 nM.
Regarding `C[C@H]1CCCN(C(=O)c2cnc3c(cnn3-c3ccc(N4CCOCC4)nc3)c2)C1` [Compound C-26], at 15-PGDH, the fold induction at 0.001 µM was determined as 1.05, the fold induction at 0.01 µM came out at 1.31, the fold induction at 0.1 µM worked out at 1.8 and the fold induction at 1 µM was 3.45.
As to `C[C@H]1CCCN(C(=O)c2cnc3c(cnn3-c3ccc4nc(N)nn4c3)c2)C1` [Compound C-27], at 15-PGDH, the fold induction at 0.001 µM came to 1.04, the fold induction at 0.01 µM is 2.06, the fold induction at 0.1 µM came out at 3.36 and the fold induction at 1 µM worked out at 4.68. Further, on 15-PGDH/HPGD, the IC50 is < 100 nM.
For the compound `O=C(c1cnc2c(cnn2-c2cncc(N3CCOCC3)c2)c1)N1CCC(F)(F)CC1` [Compound C-28], on 15-PGDH, the fold induction at 0.001 µM was 1.04, the fold induction at 0.01 µM came out at 0.76, the fold induction at 0.1 µM came to 2.06 and the fold induction at 1 µM came to 3.61.
Regarding `Cc1nc(-c2ccc(-n3nnc4cc(C(=O)N5CCC[C@H](C)C5)cnc43)cc2)no1` [Compound C-29], on 15-PGDH, the fold induction at 0.001 µM was 3.78, the fold induction at 0.01 µM stood at 4.08, the fold induction at 0.1 µM was 6.4 and the fold induction at 1 µM was 4.88.
`CCOc1ccc(-n2nnc3cc(C(=O)N4CCC[C@H](C)C4)cnc32)cc1` [Compound C-30]: at 15-PGDH, the fold induction at 0.001 µM stood at 1.16, the fold induction at 0.01 µM was found to be 1.68, the fold induction at 0.1 µM was 2.5 and the fold induction at 1 µM is 3.79.
With `C[C@H]1CCCN(C(=O)c2cnc3c(cnn3-c3ccc(N4CCNC4=O)nc3)c2)C1` [Compound C-57], on 15-PGDH, the fold induction at 0.001 µM is 4.07, the fold induction at 0.01 µM is 4.94, the fold induction at 0.1 µM was 4.94 and the fold induction at 1 µM is 4.86. Also, the half-maximal inhibitory concentration (IC50) on 15-PGDH/HPGD is < 100 nM.
As for `O=C(c1cnc2c(cnn2-c2ccc(-c3nnc[nH]3)cc2)c1)N1CCCC(F)(F)C1` [Compound C-59], at 15-PGDH, the fold induction at 0.001 µM stood at 0.91, the fold induction at 0.01 µM was found to be 3.09, the fold induction at 0.1 µM is 4.74 and the fold induction at 1 µM stood at 4.32.
Compound `CCOC(=O)Nc1cncc(-n2ncc3cc(C(=O)N4CC[C@H](C(C)(F)F)C4)cnc32)c1` [Compound C-65] registered an IC50 against 15-PGDH/HPGD of 100 to 1000 nM.
Consider `O=C(c1cnc2c(cnn2-c2cc(Cl)cc(-c3nnc[nH]3)c2)c1)N1CCSCC1` [Compound C-66, (1-(3-chloro-5-(4H-1,2,4-triazol-3-yl)phenyl)-1H-pyrazolo[3,4-b]pyridin-5-yl)(thiomorpholino)methanone], for which, at 15-PGDH/HPGD, the IC50 was < 100 nM.
The compound `O=C(c1cnc2c(cnn2-c2cc(Cl)cc(-c3nnc[nH]3)c2)c1)N1CC[S+]([O-])CC1` [Compound C-67] had an IC50 against 15-PGDH/HPGD of 100 to 1000 nM.
Regarding `O=C(c1cnc2c(cnn2-c2ccc(-c3nnc[nH]3)c(Cl)c2)c1)N1CCSCC1` [Compound C-68], the IC50 against 15-PGDH/HPGD was < 100 nM.
As to `O=C(c1cnc2c(cnn2-c2ccc(-c3nnc[nH]3)c(F)c2)c1)N1CC[S+]([O-])CC1` [Compound C-69], the IC50 on 15-PGDH/HPGD lay in the range of 100 to 1000 nM.
As to `O=C(c1cnc2c(cnn2-c2ccc(-c3nnc[nH]3)c(Cl)c2)c1)N1CC[S+]([O-])CC1` [Compound C-70], the IC50 at 15-PGDH/HPGD fell in the range of 100 to 1000 nM.
Consider `COc1cc(-c2nnc[nH]2)cc(-n2ncc3cc(C(=O)N4CCC(F)(F)CC4)cnc32)c1` [Compound C-71], for which the IC50 at 15-PGDH/HPGD was < 100 nM.
For `Cc1cc(-n2ncc3cc(C(=O)N4CCC(F)(F)CC4)cnc32)ccc1-c1nnc[nH]1` [Compound C-72], at 15-PGDH/HPGD, the IC50 was < 100 nM.
For the compound `O=C(c1cnc2c(cnn2-c2ccc(-c3nnc[nH]3)cc2F)c1)N1CCC(F)(F)CC1` [Compound C-73], the IC50 against 15-PGDH/HPGD is < 100 nM.
Same read-out and setting: under `COc1cc(-n2ncc3cc(C(=O)N4CCC(F)(F)CC4)cnc32)ccc1-c1nnc[nH]1` [Compound C-74] stands < 100 nM; under `CCOC(=O)Nc1cncc(-n2ncc3cc([S+]([O-])CC4CC4)cnc32)c1` (centres unmarked) [Compound C-90], 100 to 1000 nM; under `CCCC[S+]([O-])c1cnc2c(cnn2-c2cccc(-c3nnc[nH]3)c2)c1` (centres unmarked) [Compound C-92], 100 to 1000 nM.
The same measure, in the same setting: to `CCCC[S+]([O-])c1cnc2c(cnn2-c2ccc(-c3nnc[nH]3)cc2)c1` (centres unmarked) [Compound C-93] belongs 100 to 1000 nM; to `CCCC[S+]([O-])c1cnc2c(cnn2-c2cncc(NC(=O)OCC)c2)c1` (centres unmarked) [Compound C-94], 100 to 1000 nM; to `[O-][S+](CC1CC1)c1cnc2c(cnn2-c2ccc(-c3nnc[nH]3)cc2)c1` (centres unmarked) [Compound C-95], 100 to 1000 nM.
Consider `COCC(=O)Nc1cncc(-n2ncc3cc([S+]([O-])C4CCC(F)(F)CC4)cnc32)c1` (centres unmarked) [Compound C-124], for which the IC50 against 15-PGDH/HPGD is < 100 nM.
Still for that read-out and setting: to `O=C(O)c1ccc(-c2cnc3cc(C(=O)N4CCC(F)(F)CC4)ccn23)cc1` [Compound D-1, 4-(7-(4,4-difluoropiperidine-1-carbonyl)imidazo[1,2-a]pyridin-3-yl)benzoic acid] belongs < 100 nM; to `O=C(O)c1ccc(-c2cnc3cc(C(=O)N4CCC(F)(F)CC4)ccn23)cn1` [Compound D-2, 5-(7-(4,4-difluoropiperidine-1-carbonyl)imidazo[1,2-a]pyridin-3-yl)picolinic acid], 100 to 1000 nM; to `O=C(c1ccn2c(-c3ccc(-c4ncn[nH]4)nc3)cnc2c1)N1CCC(F)(F)CC1` [Compound D-3, (3-(6-(1H-1,2,4-triazol-5-yl)pyridin-3-yl)imidazo[1,2-a]pyridin-7-yl)(4,4-difluoropiperidin-1-yl)methanone], 100 to 1000 nM.
At 15-PGDH/HPGD, `O=C(O)c1ccc(-n2cc3cc(C(=O)N4CCC(F)(F)CC4)ccc3n2)cc1` [Compound D-4, 4-(5-(4,4-difluoropiperidine-1-carbonyl)-2H-indazol-2-yl) benzoic acid] came in with an IC50 of 100 to 1000 nM.

The term IC50 denotes the concentration needed to halve the response being measured. Read a high IC50 as weaker potency in that assay.
